According to publication PMC8707861 (Tomography, 2021):
Where two headings read alike, the source gives them in different places.

Tests used:
[1] = Stability by incubation in 10 mM histidine solution (HPLC); assay type: physicochemical
Method: (§1) After different time intervals the content of the solutions was tested by HPLC method.

[2] = Paper electrophoresis analysis (charge of the molecule); assay type: physicochemical; conditions: 0.01 M phosphate buffer pH 7.40, 200 V, 45 min
Method: Paper electrophoresis experiments were achieved on 20 × 1 cm chromatographic paper strips, Paper Chromedia GF 83 (Whatman), in the phosphate buffer (0.01 M, pH 7.40), using the midi horizontal electrophoresis unit (Sigma-Aldrich) device. For both radioconjugates, the experiments were carried out at 200 V (10 V cm^−1) for 45 min and then the distribution of radioactivity on the strips was determined using a Storage Phosphor System Cyclone Plus (Perkin-Elmer Life and Analytical Sciences, Downers Grove, IL, USA).

[3] = Stability by incubation in 10 mM cysteine solution (HPLC); assay type: physicochemical
Method: as §1

[4] = human serum, 37 °C
Method: In the case of stability studies in human serum (HS), the solution of isolated radioconjugate in PBS (0.1 mL) was added to 0.9 mL of the human serum and incubated at 37 °C. After time periods up to 4 h, 0.2 mL of the incubated serum mixture were withdrawn, mixed in an Eppendorf tube with 0.5 mL ethanol and vigorously shaken to precipitate proteins. After centrifuging (14,000 rpm for 5 min) the γ-radiation of both the supernatant and precipitate was measured using the well-type NaI(Tl) detector. To check whether the radioconjugate had not converted into other water-soluble radioactive species, aliquots of the supernatant were analysed by HPLC.

[5] = n-octanol/PBS pH 7.40, triplicate
Method: The lipophilicity of the radioconjugates was characterised by the determination of the logarithm of distribution coefficient, logD, in the n-octanol/PBS (pH 7.40) system, which mimics the physiological conditions (Product Properties Test Guidelines OPPTS 830.7550, 1996). The 1 mL PBS solution of a given radioconjugate previously isolated from reaction mixture was introduced to a test tube containing 1 mL of n-octanol and vortexed for 1 min. After that, the test tube was centrifuged for 5 min at 5800 rpm to ensure complete separation of the layers. The activity of each layer was measured, using a well-type NaI(Tl) detector. […] The logD measurements of all radioconjugates were performed in triplicate.

[6] = test system: P. aeruginosa ATCC 27,853; test: In vitro binding of radioconjugate to bacteria; assay type: cell-based; conditions: Pseudomonas aeruginosa, 37 °C
Method: (§2) Bacteria were cultured on Columbia Agar supplemented with 5% sheep blood (Graso Biotech, Starogard Gdański, Poland) at 37 °C in an aerobic atmosphere for 24 h. After incubation, a bacterial suspension with the turbidity 3 according to the McFarland standards (cell density approximately 9 × 10^8 CFU/mL) was prepared in PBS. […] The mixtures of bacteria and the radioconjugate were incubated in separated tubes for different time intervals at 37 °C without shaking. […] The supernatant was removed to a new tube, and the bacterial pellet was resuspended in 1 mL of PBS, then the sample was again centrifuged at 7000 rpm for 5 min. After second centrifugation, the supernatant was removed to a new tube and the bacterial pellet was again resuspended in 1 mL of PBS. The radioactivity measurement was performed for all three fractions, two supernatants, and a final bacterial pellet suspension. Experiments for each incubation time were triplicate.

[7] = test system: S. aureus ATCC 25,923; test: In vitro binding of radioconjugate to bacteria; assay type: cell-based; conditions: Staphylococcus aureus, 37 °C
Method: as §2

[8] = period of four half-lives of the radionuclide

Structure (SMILES): O=C(O)C[N+]12CC[N+]34CC[N+]5(CC(=O)N6CCN(c7cc8c(cc7F)c(=O)c(C(=O)O)cn8C7CC7)CC6)CC[N+]6(CC1)CC(=O)[O][68Ga-3]2365[O]C(=O)C4 (centres unmarked) [[^68Ga]Ga-DOTA-CIP]
- % of intact radioconjugate after incubation in HIS ([1]; 10 mM HIS in PBS pH 7.4, 37 °C, after 4 h): ~100%
- Stability in HIS challenging solution (in words) [1, 8]: completely stable
- Charge of the molecule by electrophoresis [2]: Negative charge
- % of intact radioconjugate after incubation in CYS ([3]; 10 mM CYS in PBS pH 7.4, 37 °C, after 4 h): ~100%
- Stability in CYS challenging solution (in words) [3, 8]: completely stable
- % of intact radioconjugate after incubation in HS ([4]; after 0.5 h): ~100%
- % of intact radioconjugate after incubation in HS ([4]; after 1 h): ~100%
- % of intact radioconjugate after incubation in HS ([4]; after 4 h): ~100%
- Stability in HS (in words) ([4]; for 68Ga period of four half-lives): completely stable
- logD [5]: −3.1 ± 0.1
- Radioconjugate Uptake ([6]; binding time 30 min): 0.82 ± 0.16%
- Radioconjugate Uptake ([6]; binding time 60 min): 1.29 ± 0.27%
- Radioconjugate Uptake ([7]; binding time 30 min): 0.89 ± 0.11%
- Radioconjugate Uptake ([7]; binding time 60 min): 1.1 ± 0.15%
